Read-outs that look alike come from different tables or passages of the source.
Tests used:
[1] = Cytotoxicity, MTS assay, normal heart muscle cells (Example 1); conditions: rat, H9C2 heart/myocardium cells
Method: (§4) In Vitro Cytotoxicity Assay of Peptide-Drug Conjugates. The cytotoxicity of the compounds was determined by using human leukemia cell line (CCRF-CEM), human ovarian adenocarcinoma cells (SKOV-3) cells, kidney cell line (LLC-PK1), gastric adenocarcinoma cells (AGS), and heart/myocardium cells (H9C2) to evaluate the toxicity of the generated peptides according to a previously reported procedure (Rahman, A.; et al. Proc. Am. Assoc. Cancer Res. 26:2295-2299, 1985, which is incorporated herein by reference). In brief, CCRF-CEM cells were seeded at 50,000 cells in 0.1 mL per well in 98-well plates. In the case of other cell lines, the cells were seeded at 5,000 cells (0.1 mL per well in 96-well plates). The cells were seeded in medium (RPMI-1640 containing FBS (10%)), 24 h prior to the experiment. The compounds at different concentrations (10-50 μM) were added to each well in triplicate and incubated for 24 and 72 h at 37° C. in a humidified atmosphere of 5% CO2. Dox (5 μM) was used as a positive control, while water and cell culture medium were used as negative controls. The compounds were dissolved in water; water was used as a negative control to normalize the data. After the incubation period, MTS reagent (20 μL) was added to each well. The incubation was continued for 2 h. Cell viability was then determined by determination of the fluorescence intensity at 490 nm using a SpectraMax M2 microplate spectrophotometer.

H9C2 cells = experiment: as above
Method: as §4

[2] = test system: gastric adenocarcinoma cells (AGS); experiment: Cytotoxicity, MTS cell viability assay, AGS
Method: (§5) In Vitro Cytotoxicity Assay of Peptide-Drug Conjugates. […] In brief, CCRF-CEM cells were seeded at 50,000 cells in 0.1 mL per well in 98-well plates. In the case of other cell lines, the cells were seeded at 5,000 cells (0.1 mL per well in 96-well plates). […] Dox (5 μM) was used as a positive control, while water and cell culture medium were used as negative controls. The compounds were dissolved in water; water was used as a negative control to normalize the data. After the incubation period, MTS reagent (20 μL) was added to each well. The incubation was continued for 2 h. Cell viability was then determined by determination of the fluorescence intensity at 490 nm using a SpectraMax M2 microplate spectrophotometer. The percentage of cell viability was then calculated using the following equation: [(OD value of cells treated with the compound)−(OD value of culture medium)]/[(OD value of control cells)−(OD value of culture medium)]×100% (FIGS. 6-9).

[3] = Cytotoxicity, MTS assay, normal kidney cells; conditions: pig, LLC-PK1 kidney cells
Method: as §4

LLC-PK1 kidney cells = experiment: Cytotoxicity, MTS assay, normal kidney cells
Method: as §4

CCRF-CEM cells = experiment: Cytotoxicity, MTS cell viability assay, CCRF-CEM
Method: as §5

SK-OV-3 cells = experiment: Cytotoxicity, MTS cell viability assay, SK-OV-3 (Example 1)
Method: as §5

MDA-231WT cells = experiment: LC50 by CCK-8 assay, wild-type cells; format: cell-based; conditions: MDA-231WT (wild type), FIG. 10: after 72 h
Method: (§1) Dox-resistant Cell Lines. Acquired resistance to Dox was induced in wild-type triple-negative breast cancer cell line MDA-MB-231 (MDA-231WT) as described before (Aliabadi, H. M.; et al. J. Control. Release 172:219-228, 2013, which is incorporated herein by reference). Briefly, MDA-231WT cells were exposed to Dox at an initial concentration of 0.05 μg/mL for one week or three consecutive expansions (whichever came later). […] Resistance induction was confirmed via calculation of LC50 following a sigmoidal effect model explained elsewhere (Bousoik, E.; et al. Front. Oncol. 9:1070, 2019, which is incorporated herein by reference) and determination of P-glycoprotein (P-gp) expression.
(§2) The cytotoxicity of the peptide-Dox conjugate in resistant triple-negative breast cancer and uterine sarcoma cell lines (MDA-231R, MDA-231WT, and MES-SA/MX2) was evaluated by a Cell Counting 8 (CCK8) KIT. The peptide-Dox conjugate was added to the cells in triplicate with different concentrations (0-40 μM). Cells were incubated at 37° C. and 5% CO2 for 24 h. After this incubation period, 10 μL of CCK8 reagent was added to each well, and plates were incubated at the same conditions for 2 h. The absorbance of each well was determined at 450 nm using the SpectraMAX M5 microplate reader. After subtracting the signal from blank wells that contain medium without cells in the plate with CCK-8 solution added, the results were normalized to cells treated with normal saline (considered as 100%)
(§3) Efficiency in Dox-Resistant Cells. In order to compare the cytotoxic effect of free and peptide-conjugated Dox in Dox-resistant cells, MDA-231WT (as a Dox-sensitive cell line as control) and MDA-231R and MES-SA/MX2 cells as Dox-resistant cells were exposed to a wide range of Dox (or Dox-equivalent for the peptide-conjugated drug) concentrations (0.05-40 μM). Cells were seeded in 96-well plates with approximately 50% confluency and were incubated for 24 h in 37° C. and 5% CO2. […] The cell viability was determined after this incubation period using the CCK-8 assay, as explained above. […]

[4] = test system: uterine sarcoma cells (MES-SA/MX2)
Method: as §5

MES-SA/MX2 cells = experiment: LC50 by CCK-8 assay, Dox-resistant MES-SA/MX2; format: cell-based; conditions: FIG. 10: after 72 h
Method: as §1
as §2, with “Cells were incubated at 37° C. and 5% CO2 for 24 h.” left out, “After subtracting the signal from blank wells that contain medium without cells in the plate with CCK-8 solution added, the results were normalized to cells treated with normal saline (considered as 100%)” left out
Efficiency in Dox-Resistant Cells. […] The cell viability was determined after this incubation period using the CCK-8 assay, as explained above. […]

[5] = Stability of [R5K]W7A-Dox in fetal bovine serum (HPLC); format: in vitro ADME; conditions: 10% FBS, 37° C.
Method: Stability Studies. The stability of [R5K]W7A-Dox conjugate was evaluated using phosphate-buffered saline (PBS) and fetal bovine serum (FBS). FBS was purchased from Invitrogen and ATCC. FBS (20%) was incubated with [R5K]W7A-Dox (75 μL, 1 mM in water) at 37° C. followed by intermediate mixing. An aliquot of 75 μL of the mixture was taken out at different time intervals (5 min to 24 h) and diluted with water (75 μL). The mixture was analyzed by using analytical HPLC, detecting the wavelength of 490 nm. The area under the curve (AUC) was calculated and used to determine the percentage of released Dox and the remaining prodrug at a given time.

MDA-231R cells = experiment: LC50 by CCK-8 assay, Dox-resistant MDA-231R; format: cell-based; conditions: MDA-231R (Dox-resistant); FIG. 10: after 72 h
Method: as §1, §2, §3

## COc1cccc2c1C(=O)c1c(O)c3c(c(O)c1C2=O)C[C@@](O)(C(=O)COC(=O)CCCC(=O)NCCC(=O)N[C@@H](Cc1c[nH]c2ccccc12)C(=O)N[C@@H](Cc1c[nH]c2ccccc12)C(=O)N[C@@H](Cc1c[nH]c2ccccc12)C(=O)N[C@@H](Cc1c[nH]c2ccccc12)C(=O)N[C@@H](Cc1c[nH]c2ccccc12)C(=O)N[C@@H](Cc1c[nH]c2ccccc12)C(=O)N[C@@H](Cc1c[nH]c2ccccc12)C(=O)NCCCC[C@@H]1NC(=O)[C@H](CCCNC(=N)N)NC(=O)[C@H](CCCNC(=N)N)NC(=O)[C@H](CCCNC(=N)N)NC(=O)[C@H](CCCNC(=N)N)NC(=O)[C@H](CCCNC(=N)N)NC1=O)C[C@@H]3O[C@H]1C[C@H](N)[C@H](O)[C@H](C)O1 [[R5K]W7A-Dox]
[1]
  viability at 24 h, 5 µM: 100 ± 2%
  viability at 24 h, 10 µM: 101%
  viability at 24 h, 25 µM: 68%
  viability at 72 h, 10 µM: 105 ± 3%
  viability at 72 h, 25 µM: 37 ± 1%
  viability at 96 h, 5 µM: 115 ± 1%
  viability at 96 h, 10 µM: 91%
  viability at 96 h, 25 µM: 39%
H9C2 cells; H9C2, 5-10 μM
  cytotoxicity to heart cells: < 9%
H9C2 cells; H9C2, 5-10 μM, 24 h, 72 h, and 96 h
  toxicity: did not show any significant toxicity
H9C2 cells; normal heart H9C2, 5 μM
  Cell Viability (%) after 24 h: 100 ± 2%
H9C2 cells; normal heart H9C2, 10 μM
  Cell Viability (%) after 24 h: 101 ± 0%
  Cell Viability (%) after 72 h: 105 ± 3%
[2]; 5 μM
  Cell Viability (%) after 24 h: 95 ± 0%
  Cell Viability (%) after 72 h: 27 ± 6%
[2]; 5 μM, 72 h
  reduction of cell survival/viability: 73%
[2]; 10 μM
  Cell Viability (%) after 24 h: 104 ± 5%
  Cell Viability (%) after 72 h: 13 ± 3%
[2]; 25 μM
  Cell Viability (%) after 24 h: 71 ± 0%
  Cell Viability (%) after 72 h: 10 ± 1%
[2]; 50 μM
  Cell Viability (%) after 24 h: 32 ± 1%
  Cell Viability (%) after 72 h: 11 ± 1%
[2]; 5 and 10 μM, 24 h
  cytotoxicity: not significantly cytotoxic
[2]; different concentrations, 72 h
  reduction of cell viability: 73-90%
[3]
  viability at 24 h, 5 µM: 88%
  viability at 24 h, 25 µM: 42%
  viability at 24 h, 50 µM: 33 ± 1%
  viability at 72 h, 5 µM: 93 ± 6%
  viability at 72 h, 10 µM: 95 ± 3%
  viability at 72 h, 25 µM: 94 ± 1%
  viability at 72 h, 50 µM: 33 ± 1%
LLC-PK1 kidney cells; LLC-PK1, 5-10 μM
  cytotoxicity to normal kidney cells: 5-7%
LLC-PK1 kidney cells; LLC-PK1, as high as 10 μM, 24 h and 72 h
  cytotoxicity: not cytotoxic
LLC-PK1 kidney cells; normal kidney LLC-PK1, 5 μM
  Cell Viability (%) after 24 h: 88 ± 0%
  Cell Viability (%) after 72 h: 93 ± 6%
LLC-PK1 kidney cells; normal kidney LLC-PK1, 10 μM
  Cell Viability (%) after 72 h: 95 ± 3%
CCRF-CEM cells; 5 μM
  Cell Viability (%) after 24 h: 74 ± 0%
  Cell Viability (%) after 72 h: 16 ± 6%
CCRF-CEM cells; 5 μM, 72 h
  reduction of cell survival/viability: 84%
CCRF-CEM cells; 10 μM
  Cell Viability (%) after 24 h: 68 ± 0%
  Cell Viability (%) after 72 h: 13 ± 3%
CCRF-CEM cells; 25 μM
  Cell Viability (%) after 24 h: 36 ± 0%
  Cell Viability (%) after 72 h: 15 ± 1%
CCRF-CEM cells; 25 μM, 24 h
  reduction of cell viability: 64%
CCRF-CEM cells; at 5, 10, and 25 μM, 72 h
  cytotoxicity: 84-87%
SK-OV-3 cells; 5 μM
  Cell Viability (%) after 24 h: 87 ± 6%
  Cell Viability (%) after 72 h: 71 ± 3%
SK-OV-3 cells; 5 μM, 24 h
  reduction of cell survival/viability: 19%
SK-OV-3 cells; 5 μM, 72 h
  reduction of cell survival/viability: 29%
SK-OV-3 cells; 10 μM
  Cell Viability (%) after 24 h: 87 ± 0%
  Cell Viability (%) after 72 h: 61 ± 6%
SK-OV-3 cells; 10 μM, 72 h
  reduction of cell viability: 39%
SK-OV-3 cells; 25 μM
  Cell Viability (%) after 24 h: 76 ± 1%
  Cell Viability (%) after 72 h: 52 ± 3%
SK-OV-3 cells; 25 μM, 72 h
  reduction of cell viability / cytotoxicity: 48%
MDA-231WT cells
  CC50: 560 nM
MDA-231WT cells; listed as Conjugated Dox
  CC50: 660 nM
[4]; 5 μM, listed as [R5K]W7-Dox
  Cell Viability (%) after 72 h: 97 ± 2%
[4]; 5 μM, listed as [R5K]W7Dox
  Cell Viability (%) after 72 h: 113 ± 1%
[4]; 10 μM
  Cell Viability (%) after 72 h: 89 ± 2%
[4]; 25 μM
  Cell Viability (%) after 72 h: 23 ± 4%
[4]; 25 μM, 72 h
  reduction of cell viability: ~80%
[4]; 5 and 10 μM, 72 h
  cytotoxicity: 0-10%
MES-SA/MX2 cells
  CC50: 4300 nM
[5]; after 4 h
  Dox released: 55%
[5]; bovine, 10% fetal bovine serum, after 24 h, read-out: peptide-Dox conjugate remained intact
  remaining at 24 h: 25%
MDA-231R cells
  CC50: 2300 nM

— patent US12070505B2, “Targeted peptide-drug conjugates” (priority 2021, dated 2024)
